Legend:
[1] = acute toxicity, single oral administration to mice; settings: mouse, in vivo
Excerpt: Moreover, the Table contains data concerning the acute toxicity (LD50 in mg/kg in the case of single oral administration to mice).

short-time memory = experiment: passive avoidance response in the Skinner box; reversal of scopolamine-induced blocking of short-time memory; assay type: in vivo, rats
Excerpt: The test apparatus is a "Skinner box" with an electrifiable grid floor (30×40 cm) and a grey plastic platform (15×15×0.8 cm) in the front right corner. Untrained male rats (100-120 g) are placed individually on the platform. As soon as they climb down on to the grid floor they receive an electric foot-shock (0.8 mA). The normal reaction of untrained rats is thereupon to jump back on to the platform. Since, however, the rats still attempt to climb down again, the foot-shock procedure must be repeated three to five times for each animal. After these three to five repetitions per animal, the rats have learned a so-called "passive avoidance response", that is, they no longer attempt to descend to the grid floor, since they know that they are punished when they do so.
Immediately thereafter three groups each comprising 30 animals are set up. The first group receives an injection (i.p.) of 0.3 mg/kg of scopolamine as well as distilled water (2 ml/kg, p.o.). The second group receives an injection (i.p.) of 0.3 mg/kg of scopolamine and an oral dosage of the test substance. The third group receives only distilled water (p.o).
Two (2) hours later each rat is placed once on the platform in the "Skinner box". […] The statistical significance of the difference between the results obtained in the first and in the second groups is determined by means of the Chi-Square Test. […]

Row | Structure (SMILES) | LD50 [1] [mg/kg] | Significant active dosage (short-time memory; oral dosage significantly active against scopolamine (0.3 mg/kg i.p.), assessed 2 hours later, Chi-Square Test, each listed dosage was active) [mg/kg p.o.] | animals with retrograde effect on the short-time memory (short-time memory; scopolamine 0.3 mg/kg i.p. and distilled water p.o., during 3-4 hours)
1 | C[C@@H]1CCC[C@H](C)N1CCNC(=O)CN1CCC(O)C1=O (mixture of isomers) [Compound A, (R/S)-cis-N-[2-(2,6-dimethyl-1-piperidinyl)ethyl]-2-(3-hydroxy-2-oxo-1-pyrrolidinyl)acetamide] | > 5000 |  | 
2 | NC(=O)CN1CCC(O)C1=O (racemic) [Compound D, (R/S)-2-(3-hydroxy-2-oxo-1-pyrrolidinyl)acetamide] | > 5000 |  | 
3 | CC(C)N(CCNC(=O)CN1CCC(O)C1=O)C(C)C (racemic) [Compound E, (R/S)-N-[2-(diisopropylamino)ethyl]-2-(3-hydroxy-2-oxo-1-pyrrolidinyl)-acetamide] | > 5000 | 3 | 
4 | NC(=O)CN1CC[C@H](O)C1=O [Compound B, (S)-(-)-2-(3-hydroxy-2-oxo-1-pyrrolidinyl)acetamide] | > 5000 |  | 
5 | NC(=O)CN1CC[C@@H](O)C1=O [Compound C, (R)-(+)-2-(3-hydroxy-2-oxo-1-pyrrolidinyl)acetamide] | > 5000 |  | 
6 | CN1[C@@H]2C[C@@H](OC(=O)[C@H](CO)c3ccccc3)C[C@H]1[C@@H]1O[C@@H]12 [scopolamine, reference compound] |  |  | 85-92%

Reference: patent publication US5034402A, “Methods and pharmaceutical compositions using pyrrolidine derivatives” (Hoffmann-La Roche Inc., priority 1981, dated 1991)
